Here are results for one molecule from BindingDB's records for doi:10.1021/acs.jmedchem.7b00901 (University of South Australia, 2018).

This assay addresses Cyclin-dependent kinase inhibitor 1 (Homo sapiens, UniProt P38936). The assay is described as follows: Inhibition of p21 (unknown origin)-induced transcription in human HT1080 p21-9-CMV-GFP cells after 3 days by fluorescence assay.

Chain of Cyclin-dependent kinase inhibitor 1 (P38936 whole entry): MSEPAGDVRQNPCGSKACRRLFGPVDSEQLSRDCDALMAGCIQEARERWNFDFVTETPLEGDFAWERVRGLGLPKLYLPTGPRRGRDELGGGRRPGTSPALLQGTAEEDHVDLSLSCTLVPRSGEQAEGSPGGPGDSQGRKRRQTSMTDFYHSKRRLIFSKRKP

The molecule `N#Cc1ccc2ncnc(NCCc3ccccc3)c2c1` displayed an IC50 of 640 nM.
